The target of data set [1] is T1, trypsin-activated recombinant human renin (Homo sapiens, UniProt P00797).
T1 sequence (P00797 67-406): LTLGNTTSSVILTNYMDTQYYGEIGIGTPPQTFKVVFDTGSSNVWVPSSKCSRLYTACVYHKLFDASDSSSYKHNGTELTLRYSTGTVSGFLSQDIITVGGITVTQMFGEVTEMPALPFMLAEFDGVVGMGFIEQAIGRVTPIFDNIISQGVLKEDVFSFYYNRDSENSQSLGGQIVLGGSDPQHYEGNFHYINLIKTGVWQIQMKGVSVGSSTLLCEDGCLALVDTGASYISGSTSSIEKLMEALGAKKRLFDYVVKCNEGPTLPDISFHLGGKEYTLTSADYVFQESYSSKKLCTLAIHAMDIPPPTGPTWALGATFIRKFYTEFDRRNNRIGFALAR
Nature of the data set: In vitro renin inhibition, fluorescence of internally quenched peptide substrate. Format: biochemical. The following applies: pH 7.0, rt. The protocol: The sequence of this peptide corresponds to the sequence of human angiotensinogen. The following test protocol was used. All reactions were carried out in a flat bottom white opaque microtiter plate. A 4 μL aliquot of 400 μM renin substrate (DABCYL-γ-[…]) in 192 μL assay buffer (50 mM BES, 150 mM NaCl, 0.25 mg/mL bovine serum albumin, pH7.0) was added to 4 μL of test compound in DMSO at various concentrations ranging from 10 μM to 1 nM final concentrations. Next, 100 μL of trypsin-activated recombinant human renin (final enzyme concentration of 0.2-2 nM) in assay buffer was added, and the solution was mixed by pipetting. The increase in fluorescence at 495 nm (excitation at 340 nm) is measured for 60-360 minutes at rt using a Perkin-Elmer Fusion microplate reader. The slope of a linear portion of the plot of fluorescence-increase as a function of time was then determined, and the rate was used for calculating percent inhibition in relation to uninhibited control. […] (Wang G. T. et al. Anal. Biochem. 1993, 210, 351; Nakamura, N. et al. J. Biochem. (Tokyo) 1991, 109, 741; Murakami, K. et al. Anal Biochem. 1981, 110, 232).

Data set [2] has as its target T2, plasma renin activity (PRA) (Homo sapiens, UniProt P00797).
T2 construct: 87.3% of pooled mixed-gender human plasma stabilized with EDTA; from tissue; host or cells: pooled mixed-gender human plasma (EDTA)
T2 sequence (P00797 67-406): T1 sequence (P00797 67-406)
Description: In vitro plasma renin activity (PRA) in human plasma, angiotensin I radioimmunoassay. The class given is biochemical. The following applies: pooled human plasma, 37° C., 90 min, IC50 of plasma renin activity. The method, then: For plasma batches with low PRA (less than 1 ng/ml/hr) ˜2 pM of recombinant human renin was added to achieve PRA of 3-4 ng/ml/hr. The cleavage of endogenous angiotensinogen in plasma was carried out at 37° C. for 90 min and the product angiotensin I was measured by competitive radioimmunoassay using DiaSorin PRA kit.

In data set [3] the test system is double transgenic rats engineered to express human renin and human angiotensinogen. Nature of the data set: In vivo efficacy in double transgenic rats, telemetry blood pressure. Also on record: species or system rat. Conditions: oral, 10 mg/kg, FIG. 3. The method, then:
Double Transgenic Rat: The efficacy of the renin inhibitor 6a was evaluated in vivo in double transgenic rats engineered to express human renin and human angiotensinogen (Bohlender J, Fukamizu A, Lippoldt A, Nomura T, Dietz R, Menard J, Murakami K, Luft F C, Ganten D. High human renin hypertension in transgenic rats. Hypertension 1997, 29, 428-434).
(§1) Experiments were conducted in 6-week-old double transgenic rats (dTGRs). The model has been described in detail earlier. […] The human angiotensinogen construct made up the entire human angiotensinogen gene (5 exons and 4 introns), with 1.3 kB of 5′-flanking and 2.4 kB of 3′-flanking sequences. The rats were purchased from RCC Ltd (Füillinsdorf, Switzerland). Radio telemetry transmitters were surgically implanted at 4 weeks of age. The telemetry system provided 24-h recordings of systolic, mean, diastolic arterial pressure (SAP, MAP, DAP, respectively) and heart rate (HR). Beginning on day 42, animals were transferred to telemetry cages. A 24 h telemetry reading was obtained. Rats were then dosed orally on the following 4 consecutive days (days 43-46). The rats were monitored continuously and allowed free access to standard 0.3%-sodium rat chow and drinking water.

Data set [4] can be described thus: Plasma concentration in transgenic rats after oral administration. Format: in vivo, rat. The following applies: 10 mg/kg, FIG. 2. The method, then: FIG. 2 is a plot showing mean plasma concentrations of compound 6a in transgenic rats over time following oral administration of 10 mg/kg of compound 6a.
as §1

In the case of `CNC[C@H](CC1CCCOC1)NC(=O)N1CCC[C@@H]([C@@H](OCCNC(=O)OC)c2cccc(C)c2)C1` (stereo partly drawn) [Compound 1, methyl 2-((R)-((R)-1-((S)-1-(methylamino)-3-(tetrahydro-2H-pyran-3-yl)propan-2-ylcarbamoyl)piperidin-3-yl)(m-tolyl)methoxy)ethylcarbamate], the half-maximal inhibitory concentration (IC50) in data set [1] and in data set [2] was below 10 nM in each case.
On to `CNC[C@H](C[C@H]1CCCOC1)NC(=O)N1CCC[C@@H]([C@@H](OCCNC(=O)OC)c2cccc(F)c2)C1` [Compound 2a, methyl 2-((R)-(3-fluorophenyl)((R)-1-((S)-1-(methylamino)-3-((R)-tetrahydro-2H-pyran-3-yl)propan-2-ylcarbamoyl)piperidin-3-yl)methoxy)ethylcarbamate], for which the IC50 in data set [1] and in data set [2] was below 10 nM each time.
Regarding `CNC[C@H](C[C@@H]1CCCOC1)NC(=O)N1CCC[C@@H]([C@@H](OCCNC(=O)OC)c2cccc(F)c2)C1` [Compound 2b, methyl 2-((R)-(3-fluorophenyl)((R)-1-((S)-1-(methylamino)-3-((S)-tetrahydro-2H-pyran-3-yl)propan-2-ylcarbamoyl)piperidin-3-yl)methoxy)ethylcarbamate], the results for the IC50 in data set [1] and in data set [2] were below 10 nM and below 20 nM, respectively.
As for `CNC[C@H](C[C@H]1CCCOC1)NC(=O)N1CCC[C@@H]([C@@H](OCCNC(=O)OC)c2cc(F)cc(Cl)c2)C1` [Compound 3a, methyl 2-((R)-(3-chloro-5-fluorophenyl)((R)-1-((S)-1-(methylamino)-3-((R)-tetrahydro-2H-pyran-3-yl)propan-2-ylcarbamoyl)piperidin-3-yl)methoxy)ethylcarbamate], the IC50 in data set [1] and in data set [2] was below 1 nM in each case.
On to `CNC[C@H](C[C@@H]1CCCOC1)NC(=O)N1CCC[C@@H]([C@@H](OCCNC(=O)OC)c2cc(F)cc(Cl)c2)C1` [Compound 3b, Methyl 2-((R)-(3-chloro-5-fluorophenyl)((R)-1-((S)-1-(methylamino)-3-((S)-tetrahydro-2H-pyran-3-yl)propan-2-ylcarbamoyl)piperidin-3-yl)methoxy)ethylcarbamate], for which the IC50 in data set [1] and in data set [2] was below 10 nM throughout.
Consider `CNC[C@H](C[C@H]1CCCOC1)NC(=O)N1CCC[C@@H]([C@@H](OCCNC(=O)OC)c2cc(F)cc(F)c2)C1` [Compound 4a, methyl 2-((R)-(3,5-difluorophenyl)((R)-1-((S)-1-(methylamino)-3-((R)-tetrahydro-2H-pyran-3-yl)propan-2-ylcarbamoyl)piperidin-3-yl)methoxy)ethylcarbamate], for which the IC50 in data set [1] and in data set [2] was below 10 nM in each case.
Turning to `CNC[C@H](C[C@@H]1CCCOC1)NC(=O)N1CCC[C@@H]([C@@H](OCCNC(=O)OC)c2cc(F)cc(F)c2)C1` [Compound 4b, methyl 2-((R)-(3,5-difluorophenyl)((R)-1-((S)-1-(methylamino)-3-((S)-tetrahydro-2H-pyran-3-yl)propan-2-ylcarbamoyl)piperidin-3-yl)methoxy)ethylcarbamate], the IC50 – broadly, the concentration needed to halve the response being measured – in data set [1] is below 10 nM; in data set [2] it was below 50 nM.
As to `CNC[C@H](C[C@H]1CCCOC1)NC(=O)N1CCC[C@@H]([C@@H](OCCNC(=O)OC)c2cc(F)ccc2C)C1` [Compound 5a, methyl 2-((R)-(5-fluoro-2-methylphenyl)((R)-1-((S)-1-(methylamino)-3-((R)-tetrahydro-2H-pyran-3-yl)propan-2-ylcarbamoyl)piperidin-3-yl)methoxy)-ethylcarbamate], the IC50 in data set [1] and in data set [2] was below 10 nM in each case.
As to `CNC[C@H](C[C@@H]1CCCOC1)NC(=O)N1CCC[C@@H]([C@@H](OCCNC(=O)OC)c2cc(F)ccc2C)C1` [Compound 5b, methyl 2-((R)-(5-fluoro-2-methylphenyl)((R)-1-((S)-1-(methylamino)-3-((S)-tetrahydro-2H-pyran-3-yl)propan-2-ylcarbamoyl)piperidin-3-yl)methoxy)-ethylcarbamate], the IC50 is below 20 nM in data set [1] and below 50 nM in data set [2].
For `CNC[C@H](C[C@H]1CCCOC1)NC(=O)N1CCC[C@@H]([C@@H](OCCNC(=O)OC)c2cccc(Cl)c2)C1` [Compound 6a, methyl 2-((R)-(3-chlorophenyl)((R)-1-((S)-1-(methylamino)-3-((R)-tetrahydro-2H-pyran-3-yl)propan-2-ylcarbamoyl)piperidin-3-yl)methoxy)ethylcarbamate], the IC50 in data set [1] is below 1 nM. For the same molecule, in data set [2], the half-inhibitory concentration (IC50) is below 1 nM. For the same molecule, the “effect on mean arterial blood pressure” value in data set [3] is “significant effect in lowering blood pressures”. For the same molecule, in data set [4], the “oral bioavailability and metabolic stability” value is reported as “excellent”; the “plasma concentration of compound following oral administration” value is given as “remains relatively high over 24 h period”.
Turning to `CNC[C@H](C[C@@H]1CCCOC1)NC(=O)N1CCC[C@@H]([C@@H](OCCNC(=O)OC)c2cccc(Cl)c2)C1` [Compound 6b, methyl 2-((R)-(3-chlorophenyl)((R)-1-((S)-1-(methylamino)-3-((S)-tetrahydro-2H-pyran-3-yl)propan-2-ylcarbamoyl)piperidin-3-yl)methoxy)ethylcarbamate], the IC50 in data set [1] and in data set [2] was below 10 nM throughout.
As for `CNC[C@H](C[C@H]1CCCOC1)NC(=O)N1CCC[C@@H]([C@@H](OCCNC(=O)OC)c2ccccc2)C1` [Compound 7, methyl 2-((R)-((R)-1-((S)-1-(methylamino)-3-((R)-tetrahydro-2H-pyran-3-yl)propan-2-ylcarbamoyl)piperidin-3-yl)(phenyl)methoxy)ethylcarbamate], the figures for the IC50 in data set [1] and in data set [2] were below 20 nM and below 50 nM, respectively.
On the same counts, the results for `CNC[C@H](C[C@H]1CCCOC1)NC(=O)N1CCC[C@@H]([C@@H](OCCNC(=O)OC)c2ccc(F)c(Cl)c2)C1` [Compound 8, methyl 2-((R)-(3-chloro-4-fluorophenyl)((R)-1-((S)-1-(methylamino)-3-((R)-tetrahydro-2H-pyran-3-yl)propan-2-ylcarbamoyl)piperidin-3-yl)methoxy)-ethylcarbamate] are below 10 nM and below 10 nM.
On the same counts, the results for `CCOC(=O)NCCO[C@@H](c1cc(F)cc(Cl)c1)[C@@H]1CCCN(C(=O)N[C@H](CNC)C[C@H]2CCCOC2)C1` [Compound 9, ethyl 2-((R)-(3-chloro-5-fluorophenyl)((R)-1-((S)-1-(methylamino)-3-((R)-tetrahydro-2H-pyran-3-yl)propan-2-ylcarbamoyl)piperidin-3-yl)methoxy)-ethylcarbamate] are below 10 nM and below 50 nM.
On the same counts, the results for `CNC[C@H](C[C@H]1CCCOC1)NC(=O)N1CCC[C@@H]([C@@H](OCCNC(=O)OC)c2cc(Cl)ccc2C)C1` [Compound 10, methyl 2-((R)-(5-chloro-2-methylphenyl)((R)-1-((S)-1-(methylamino)-3-((R)-tetrahydro-2H-pyran-3-yl)propan-2-ylcarbamoyl)piperidin-3-yl)methoxy)-ethylcarbamate] are below 10 nM and below 1 nM.

Values taken from US20090318501A1, “Piperidine derivatives as renin inhibitors” (priority 2006, published 2009).
